One assay deals with lymphoma cell line G3. Nature of the assay: Cell growth assay (resazurin fluorescence) on CHOP-resistant G3 NHL cells. The assay is classed as cell-based, human. The following applies: for Magnitude of potentiation in combination with doxorubicin: G3, lymphoma B cells. Here is the method:
(§1) Compositions were tested on CHOP-resistant G3 NHL cells that had been cultivated in RPMI medium for five days. Prior to assay, the cells were counted by haemocytometer and cell concentration standardized to 625,000 cells/ml. Test drugs were solubilized in 100% DMSO and then diluted to final assay concentration with 0.1M phosphate buffered saline (PBS) and a final DMSO concentration of 0.5%. Cells were added to assay plates containing the test drugs (rifabutin+148 ng/ml, 74 ng/ml, 37 ng/ml, or 0 ng/ml doxorubicin) and allowed to incubate for 96 hours at 37° C. and 5% CO2. The metabolic dye rezasurin was added to the wells of the assay plate at a final concentration of 20 μg/ml and the plates were incubated for an additional 24 hours. The plates were then read in a BMG Polarstar plate reader at wavelength (573-605) and the data plotted as OD versus increasing dilutions (i.e. decreasing total amounts) of rifabutin derivative concentration.

Assay [1] relates to multi-drug resistant ovarian cancer cell line OVCAR-3. Nature of the assay: Cell growth assay on OVCAR-3 cells. Particulars: OVCAR-3, ovarian carcinoma. Type of assay: cell-based. The method, then:
as §1
(§2) In these experiments, the following cell lines were used: CHOP-resistant NHL cell line G3, CHOP-sensitive NHL cell line CRL2631, the multi-drug resistant sarcoma cell line MES-SA-Dx5; multi-drug-resistant breast cancer cell line MDA-MB-231, multi-drug resistant ovarian carcinoma cell line SK-OV3, multi-drug resistant ovarian cancer cell line NCI/ADR-RES, drug-sensitive ovarian cancer cell line OVCAR-5, and multi-drug resistant ovarian cancer cell line OVCAR-3. […]

In assay [2] the test system is multi-drug resistant ovarian carcinoma cell line SK-OV3. Nature of the assay: Cell growth assay on SK-OV3 cells. The assay is classed as cell-based, human. Particulars: SK-OV3, ovarian carcinoma. The method, then:
as §1, §2

Where [3] appears, read: analog alone, lymphoma cell line G3, read-out: IC50.
Setting [4] is: with 1 μM doxorubicin, lymphoma cell line G3, read-out: IC50 (μM) with doxorubicin (1 μM).

Read-outs that look alike come from different tables or passages of the source.

Take `COC1C=COC2(C)Oc3c(C)c(O)c4c(c3C2N)C2=NC3(CCN(C(=O)NCC(C)C)CC3)NC2=C(NC(=O)C(C)=CC=CC(C)C(O)C(C)C(O)C(C)C(OC(C)=O)C1C)C4=O` (stereo not drawn) [RTI-183, 11-deoxy-11-amino-4-deoxy-3,4[2-spiro-[1-(isobutylaminocarbonyl)-piperidin-4-yl]]-(1H)-imidazo-(2,5-dihydro)rifamycin S]: the figures for the 50% inhibitory concentration (IC50) in the assay with lymphoma cell line G3 (setting [3]) and with lymphoma cell line G3 (setting [4]) were greater than 64 µM and 5.19 µM, respectively. In the assay on lymphoma cell line G3 (lymphoma cell line G3), the “Fold increase in potency over DOX alone” value is given as 0.5 fold. Besides, the “Magnitude of potentiation in combination with doxorubicin” value (from here on “Magnitude of potentiation”) in assay [1] is listed as “+ (potentiation between 1.2 to 2.0 fold increase)”.

`CC[C@]1(O)C[C@@H]2CN(CCc3c([nH]c4ccccc34)[C@@](C(=O)OC)(c3cc4c(cc3OC)N(C)[C@H]3[C@@](O)(C(=O)OC)[C@H](OC(C)=O)[C@]5(CC)C=CCN6CC[C@]43[C@@H]65)C2)C1` [Vinblastine, vinblastine]: the IC50 with lymphoma cell line G3 (Homo sapiens, therapeutic drug alone, G3, read-out: IC50) is 8 µM; in the assay with lymphoma cell line G3 (Homo sapiens, therapeutic drug with Rifabutin, G3, read-out: IC50 (μM) with Rifabutin) it was 1 µM. Further, the “Fold increase in potency” value with lymphoma cell line G3 (with vs without Rifabutin, G3) was found to be 8.0 fold.

For “11-deoxy-11-imino-4-deoxy-3,4[2-spiro-[1-(2-methoxyethyl)- piperidin-4-yl]]-(1H)-imidazo-(2,5-dihydro)rifamycin S [RTI-51]”, the IC50 was greater than 64 µM with lymphoma cell line G3 (setting [3]) and 3.3 µM with lymphoma cell line G3 (setting [4]). Also, the “Fold increase in potency over DOX alone” value with lymphoma cell line G3 (lymphoma cell line G3) stood at 0.7 fold. Moreover, the “Magnitude of potentiation” value in assay [2] and in assay [1] was “+ (potentiation between 1.2 to 2.0 fold increase)” throughout.

`O=c1[nH]c2ccccc2n1C1CCN(Cc2ccc(-c3nc4cc5[nH]cnc5cc4nc3-c3ccccc3)cc2)CC1` [Akt Inhibitor VIII]: the CHOP resistance result in the assay on lymphoma cell line G3 (G3 cells, varying amounts of Akt Inhibitor VIII) is given as “dose-dependent reversal of CHOP resistance”.

As to “4-deoxy-3,4[2-spiro-[1-(n-propyloxycarbonyl)-piperidin-4-yl]]- (1H)-imidazo-(2,5-dihydro)rifamycin S [RTI-78]”, the values for the IC50 in the assay on lymphoma cell line G3 (setting [3]) and with lymphoma cell line G3 (setting [4]) were 58 µM and 0.08 µM, respectively. Moreover, the “Fold increase in potency over DOX alone” value in the assay with lymphoma cell line G3 (lymphoma cell line G3) came to 29.5 fold.

For `COC1C=COC2(C)Oc3c(C)c(O)c4c(c3C2N)C2=NC3(CCN(CC(C)C)CC3)NC2=C(NC(=O)C(C)=CC=CC(C)C(O)C(C)C(O)C(C)C(OC(C)=O)C1C)C4=O` (stereo not drawn) [RTI-181, 11-deoxy-11-amino-4-deoxy-3,4[2-spiro-[1-(2-methylpropyl)-piperidin-4-yl]]-(1H)-imidazo-(2,5-dihydro)rifamycin S], the “Magnitude of potentiation” value with lymphoma cell line G3 is given as “+++ (potentiation greater than 5 fold increase)”; in assay [2], “+++ (potentiation greater than 5 fold increase)”; in assay [1] it was “+ (potentiation between 1.2 to 2.0 fold increase)”. Also, the results for the IC50 in the assay with lymphoma cell line G3 (setting [3]) and with lymphoma cell line G3 (setting [4]) were 52 µM and 0.43 µM, respectively. The “Fold increase in potency over DOX alone” value in the assay on lymphoma cell line G3 (lymphoma cell line G3) worked out at 5.5 fold.

As to `COC1C=COC2(C)Oc3c(C)c(O)c4c(c3C2=O)C2=NC3(CCN(C(=O)NCC(C)C)CC3)NC2=C(NC(=O)C(C)=CC=CC(C)C(O)C(C)C(O)C(C)C(OC(C)=O)C1C)C4=O` (stereo not drawn) [RTI-102, 4-deoxy-3,4[2-spiro-[1-(isobutylaminocarbonyl)-piperidin-4-yl]]-(1H)-imidazo-(2,5-dihydro)rifamycin S], the “Magnitude of potentiation” value in the assay with lymphoma cell line G3 is recorded as “++ (potentiation between 2.1 to 5 fold increase)”; in assay [2], “+++ (potentiation greater than 5 fold increase)”. Further, the concentration for half-maximal inhibition (IC50) is greater than 64 µM in the assay with lymphoma cell line G3 (setting [3]) and 0.95 µM with lymphoma cell line G3 (setting [4]). The “Fold increase in potency over DOX alone” value in the assay with lymphoma cell line G3 (lymphoma cell line G3) came out at 2.5 fold.
